Data reported in patent US20040223963A1, “Method for treating ischemic stroke with melatonin” (priority 2003, published 2004).
“Also recorded” adds a separate entry of the source. Like-named read-outs stand apart in the source and are kept apart here.

What was measured:
[1] = system: ischemic stroke; details: cited from earlier work
[2] = system: adult Sprague-Dawley rats; assay: endovascular middle cerebral artery occlusion (MCAO) stroke models, permanent and 3-hour; type: in vivo, rat
From the text: The laboratory observations in support of the disclosed invention include experiments with rats. In experimental studies, the control groups of animal received identical handling plus an intraperitoneal injection of the vehicle alone (i.e. without melatonin).

[3] = system: women; details: oral, about 300 mg daily for about 4 months; cited from earlier work
[4] = clinical trials on neuroprotection against ischemic stroke
[5] = second and third doses added at 24 and 48 hours of ischemia

For `C[C@@H]1C[C@H]2[C@@H]3CCC4=CC(=O)C=C[C@]4(C)C3=CC[C@]2(C)[C@H]1C(=O)CN1CCN(c2cc(N3CCCC3)nc(N3CCCC3)n2)CC1` [Tirilazad], the “Results (efficacy)” value [1, 4] is listed as “No efficacy”.
In the case of `C[C@]12N[C@H](Cc3ccccc31)c1ccccc12` [Dizolcipine], the “Results (adverse effects)” value [1, 4] is given as “Trial stopped, adverse effects”.
In the case of `CN1CC[C@@]23CCCC[C@@H]2[C@@H]1Cc1ccc(O)cc13` [Dextrorfan], the “Results (adverse effects)” value [1, 4] is given as “Trial stopped, adverse effects”.
In the case of `COc1ccc(Cl)cc1[C@]1(F)C(=O)Nc2cc(C(F)(F)F)ccc21` [BMS-204352], the “Results (efficacy)” value [1, 4] is given as “No efficacy”.
In the case of `NS(=O)(=O)c1cccc2c1c([N+](=O)[O-])cc1nc(O)c(O)nc12` [NBQX], the “Results (adverse effects)” value ([1]; in vivo) is given as “Trial stopped, adverse effects”.
For `O=C(/C=C/c1c(C(=O)O)[nH]c2cc(Cl)cc(Cl)c12)Nc1ccccc1` [GV150526], the “Results (efficacy)” value [1, 4] is listed as “No efficacy”.
For `CN(c1nc2ccccc2s1)C1CCN(C[C@H](O)COc2ccc(F)c(F)c2)CC1` [Lubeluzole], the “Results (efficacy)” value [1, 4] is listed as “No efficacy”.
In the case of `NC(=O)CN1CCCC1=O` [Piracetam], the “Results (efficacy)” value [1, 4] is given as “No overall efficacy,”.
In the case of `OC(CN1CCC(Cc2ccc(F)cc2)CC1)c1ccc(Cl)cc1` (centres unmarked) [Eliprodil], the “Results (efficacy)” value [1, 4] is listed as “No efficacy”.
For `O=C(O)[C@@H]1C[C@H](CP(=O)(O)O)CCN1` (racemic) [Selfotel], the “Results (adverse effects)” value [1, 4] is listed as “Trial stopped, adverse effects”.
In the case of `Fc1ccc(C(c2ccc(F)cc2)N2CCN(C/C=C/c3ccccc3)CC2)cc1` [Flunarizine], the “Results (efficacy)” value [1, 4] is given as “No efficacy”.
In the case of `O=C1NC(c2ccccc2)(c2ccccc2)C(=O)N1COP(=O)(O)O` [Fosphenytoin], the “Results (efficacy)” value [1, 4] is listed as “No efficacy”.
For `COc1ccc2[nH]cc(CCNC(C)=O)c2c1` [melatonin], the “efficacy at high dose” value ([2]; 50 mg/kg) was “effective”, the harmful effects ([2]; doses up to about 50 mg/kg) was “can be administered safely; also recorded: no evidence of producing any harmful effects” and the “reduction of infarct volume” value ([2]; pre-treatment, single i.p. injection, about 5 to about 15 mg/kg, at about 72 hours, permanent and 3-hour MCAO) was “about 40%”. The “effect on systemic hemodynamic parameters and regional cerebral blood flow” value ([2]; pre-treatment, single i.p. injection, about 5 to about 15 mg/kg, permanent and 3-hour MCAO) was “without affecting”, the “infarct volume with additional doses” value [2, 5] was “tended to achieve increased reduction in infarct volume” and the treatment time window [2, 5] was “failed to extend the treatment time window beyond about 3 hours”. The “efficacy of treatment after onset of ischemia” value ([2]; single injection about 5 mg/kg commenced at 1 hour or less after onset of ischemia, 3-hour MCAO) was “effective”, the effect on ovulation [3] was “inhibit ovulation” and the side effects [3] was “without significant side effects”.
For `CCCn1cnc2c1c(=O)n(CCCCC(C)=O)c(=O)n2C` [Propentophylline], the “Results (adverse effects)” value [1, 4] is listed as “Trial stopped, adverse effects”.
For bFGF: Neurotrophic factor, the “Results (adverse effects)” value ([1]; in vivo) is listed as “Trial stopped, adverse effects”.
In the case of `C=C1CC[C@@]2(O)[C@H]3Cc4ccc(O)c5c4[C@@]2(CCN3CC2CC2)[C@H]1O5` [Nalmefene], the “Results (efficacy)” value [1, 4] is given as “No efficacy”.
For `COC(=O)C1=C(C)NC(C)=C(C(=O)OC(C)C)C1c1cccc2nonc12` (centres unmarked) [Isradipine], the “Results (efficacy)” value [1, 4] is given as “No efficacy”.
For `CCc1cccc(N(C)C(N)=Nc2cccc3ccccc23)c1` [Aptiganel], the “Results (adverse effects)” value [1, 4] is listed as “Trial stopped, adverse effects”.
